We go through two compounds from ChEMBL document CHEMBL4725268, “Anticonvulsant and analgesic in neuropathic pain activity in a group of new aminoalkanol derivatives” (Bioorg Med Chem Lett, 2020).

Data set [1] can be described thus: Genotoxicity in Salmonella typhimurium TA98 assessed as mutagenic index at 2.5 ug by AMES test. The class given is toxicity, Salmonella enterica subsp. enterica serovar Typhimurium. Particulars: in vivo; dose 2.5 µg.
Data set [2] in a line: Genotoxicity in Salmonella typhimurium TA98 assessed as number of revertant at 2.5 ug by AMES test (reference value: 8 to 8.3). The class given is toxicity, Salmonella enterica subsp. enterica serovar Typhimurium. Particulars: in vivo; dose 2.5 µg.
Data set [3] is described as follows: Genotoxicity in Salmonella typhimurium TA100 assessed as mutagenic index at 0.1 ug by AMES test. The conditions noted are these: in vivo; dose 0.1 µg. In kind it is toxicity, Salmonella enterica subsp. enterica serovar Typhimurium.
Data set [4] deals with Mus musculus. As to the kind of experiment: Antiallodynic activity in mouse model of OXA-induced peripheral neuropathy assessed as mean latency time to nocifensive response at 15 mg/kg, ip administered after 3 hrs of OXA stimulation and measured after 1 hr by cold plate method (reference value: 59.76 +/- 0.16 sec). In kind it is functional.
The nature of data set [5]: Genotoxicity in Salmonella typhimurium TA98 assessed as number of revertant at 200 ug by AMES test (reference value: 8 to 8.3). Particulars: in vivo; dose 200 µg. In kind it is toxicity, Salmonella enterica subsp. enterica serovar Typhimurium.
Data set [6] relates to Astrocyte. Nature of the data set: Cytotoxicity against human Astrocyte assessed as reduction in cell viability at 50 uM incubated for 24 hrs by MTT assay. The class given is cell-based.
Data set [7] has as its system Astrocyte. As to the kind of experiment: Cytotoxicity against mouse Astrocyte assessed as reduction in cell viability at 100 uM incubated for 24 hrs by LDH assay. The class given is cell-based.
Data set [8] can be described thus: Genotoxicity in Salmonella typhimurium TA98 assessed as number of revertant at 500 ug by AMES test (reference value: 8 to 8.3). In kind it is toxicity, Salmonella enterica subsp. enterica serovar Typhimurium. Particulars: in vivo; dose 500 µg.
Data set [9] has as its system Astrocyte. Nature of the data set: Cytotoxicity against mouse Astrocyte assessed as reduction in cell viability at > 25 uM measured upto 48 hrs by crystal violet staining colorimetric assay. The class given is cell-based.
A short description of data set [10]: Genotoxicity in Salmonella typhimurium TA100 assessed as number of revertant at 10 ug by AMES test (reference value: 64.3 to 130.7). The class given is toxicity, Salmonella enterica subsp. enterica serovar Typhimurium. The conditions noted are these: in vivo; dose 10 µg.
A short description of data set [11]: Genotoxicity in Salmonella typhimurium TA98 assessed as mutagenic index at 10 ug by AMES test. In kind it is toxicity, Salmonella enterica subsp. enterica serovar Typhimurium. Particulars: in vivo; dose 10 µg.
Data set [12] is described as follows: Genotoxicity in Salmonella typhimurium TA100 assessed as number of revertant at 0.1 ug by AMES test (reference value: 64.3 to 130.7). In kind it is toxicity, Salmonella enterica subsp. enterica serovar Typhimurium. The conditions noted are these: in vivo; dose 0.1 µg.
Data set [13] in a line: Genotoxicity in Salmonella typhimurium TA100 assessed as mutagenic index at 10 ug by AMES test. The conditions noted are these: in vivo; dose 10 µg. In kind it is toxicity, Salmonella enterica subsp. enterica serovar Typhimurium.
Data set [14] in a line: Genotoxicity in Salmonella typhimurium TA100 assessed as number of revertant at 200 ug by AMES test (reference value: 64.3 to 130.7). In kind it is toxicity, Salmonella enterica subsp. enterica serovar Typhimurium. Particulars: in vivo; dose 200 µg.
Data set [15] is described as follows: Genotoxicity in Salmonella typhimurium TA98 assessed as number of revertant at 10 ug by AMES test (reference value: 8 to 8.3). The class given is toxicity, Salmonella enterica subsp. enterica serovar Typhimurium. Particulars: in vivo; dose 10 µg.
The nature of data set [16]: Protection index, ratio of TD50 for toxicity in ip dosed mouse to ED50 for anticonvulsant activity in ip dosed mouse. In kind it is organism-based. Particulars: in vivo, read-out: PI.
Data set [17] is described as follows: Toxicity in ip dosed mouse assessed as motor impairment by rotarod test. In kind it is organism-based. The conditions noted are these: in vivo.
Data set [18] in a line: Genotoxicity in Salmonella typhimurium TA98 assessed as mutagenic index at 75 ug by AMES test. In kind it is toxicity, Salmonella enterica subsp. enterica serovar Typhimurium. The conditions noted are these: in vivo; dose 75 µg.
The subject of data set [19] is Astrocyte. As to the kind of experiment: Cytotoxicity against mouse Astrocyte assessed as reduction in cell viability at 100 uM incubated for 48 hrs by trypan blue assay. In kind it is cell-based.
The nature of data set [20]: Genotoxicity in Salmonella typhimurium TA100 assessed as mutagenic index at 75 ug by AMES test. In kind it is toxicity, Salmonella enterica subsp. enterica serovar Typhimurium. Particulars: in vivo; dose 75 µg.
Data set [21] in a line: Antioxidant activity assessed as DPPH radical scavenging activity at 125 to 1000 uM by microplate method. The class given is functional. Particulars: dose microM 125-1000.
Data set [22] relates to Mus musculus. Nature of the data set: Antiallodynic activity in mouse model of OXA-induced peripheral neuropathy assessed as mean paw withdrawal threshold at 15 mg/kg, ip administered after 7 days of OXA stimulation and measured after 1 hr by Von-frey method (reference value: 3.192 +/- 0.181 g). In kind it is functional.
The nature of data set [23]: Toxicity in mouse assessed as lethality at 50 mg/kg, ip. The class given is organism-based. Particulars: in vivo.
A short description of data set [24]: Genotoxicity in Salmonella typhimurium TA100 assessed as mutagenic index at 1 ug by AMES test. The class given is toxicity, Salmonella enterica subsp. enterica serovar Typhimurium. Particulars: in vivo; dose 1 µg.
Data set [25] can be described thus: in vitro. The conditions noted are these: mouse, microsomes.
Description: Metabolic stability in mouse microsome assessed as half life
Data set [26] in a line: in vitro. Particulars: mouse, microsomes. The source holds these as a separate data set.
Description: Metabolic stability in mouse microsome assessed as intrinsic clearance
Data set [27] in a line: Genotoxicity in Salmonella typhimurium TA100 assessed as number of revertant at 75 ug by AMES test (reference value: 64.3 to 130.7). The class given is toxicity, Salmonella enterica subsp. enterica serovar Typhimurium. Particulars: in vivo; dose 75 µg.
A short description of data set [28]: Genotoxicity in Salmonella typhimurium TA98 assessed as mutagenic index at 500 ug by AMES test. The class given is toxicity, Salmonella enterica subsp. enterica serovar Typhimurium. The conditions noted are these: in vivo; dose 500 µg.
A short description of data set [29]: Drug metabolism in mouse microsome assessed as formation of monohydroxylated metabolite. In kind it is ADME. The conditions noted are these: microsomes.
The subject of data set [30] is Mus musculus. As to the kind of experiment: Antiallodynic activity in mouse model of OXA-induced peripheral neuropathy assessed as mean paw withdrawal threshold at 15 mg/kg, ip administered after 3 hrs of OXA stimulation and measured after 1 hr by Von-frey method (reference value: 3.144 +/- 0.169 g). In kind it is functional.
Data set [31] in a line: Genotoxicity in Salmonella typhimurium TA98 assessed as mutagenic index at 750 ug by AMES test. In kind it is toxicity, Salmonella enterica subsp. enterica serovar Typhimurium. Particulars: in vivo; dose 750 µg.
A short description of data set [32]: Genotoxicity in Salmonella typhimurium TA100 assessed as number of revertant at 1 ug by AMES test (reference value: 64.3 to 130.7). The class given is toxicity, Salmonella enterica subsp. enterica serovar Typhimurium. The conditions noted are these: in vivo; dose 1 µg.
A short description of data set [33]: Genotoxicity in Salmonella typhimurium TA98 assessed as number of revertant at 750 ug by AMES test (reference value: 8 to 8.3). The class given is toxicity, Salmonella enterica subsp. enterica serovar Typhimurium. The conditions noted are these: in vivo; dose 750 µg.
Data set [34] in a line: Genotoxicity in Salmonella typhimurium TA100 assessed as mutagenic index at 200 ug by AMES test. In kind it is toxicity, Salmonella enterica subsp. enterica serovar Typhimurium. The conditions noted are these: in vivo; dose 200 µg.
Data set [35] in a line: Genotoxicity in Salmonella typhimurium TA98 assessed as number of revertant at 75 ug by AMES test (reference value: 8 to 8.3). The class given is toxicity, Salmonella enterica subsp. enterica serovar Typhimurium. Particulars: in vivo; dose 75 µg.
Data set [36] addresses T1, 5-hydroxytryptamine receptor 1A (Homo sapiens, UniProt P08908).
T1 sequence (P08908 whole entry): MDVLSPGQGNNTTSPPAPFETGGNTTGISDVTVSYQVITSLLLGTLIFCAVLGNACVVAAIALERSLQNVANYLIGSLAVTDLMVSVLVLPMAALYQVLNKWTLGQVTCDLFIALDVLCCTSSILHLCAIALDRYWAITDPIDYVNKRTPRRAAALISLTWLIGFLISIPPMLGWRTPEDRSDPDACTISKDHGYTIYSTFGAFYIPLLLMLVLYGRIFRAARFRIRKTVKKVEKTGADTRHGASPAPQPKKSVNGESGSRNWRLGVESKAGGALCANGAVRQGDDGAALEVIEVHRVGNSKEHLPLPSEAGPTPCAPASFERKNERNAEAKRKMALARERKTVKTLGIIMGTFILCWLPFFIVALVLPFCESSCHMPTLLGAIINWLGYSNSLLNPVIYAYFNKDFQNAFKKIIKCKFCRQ
As to the kind of experiment: Binding affinity to 5-HT1A (unknown origin).

A short description of data set [37]: Genotoxicity in Salmonella typhimurium TA98 assessed as mutagenic index at 200 ug by AMES test. The conditions noted are these: in vivo; dose 200 µg. The class given is toxicity, Salmonella enterica subsp. enterica serovar Typhimurium.
Data set [38] relates to Mus musculus. Nature of the data set: Anticonvulsant activity in ip dosed mouse assessed as protection against current-induced seizure by maximal electroshock seizure test. In kind it is functional.
In data set [39] the test system is Mus musculus. Nature of the data set: Antiallodynic activity in mouse model of OXA-induced peripheral neuropathy assessed as mean latency time to nocifensive response at 15 mg/kg, ip administered after 7 days of OXA stimulation and measured after 1 hr by cold plate method (reference value: 57.64 +/- 1.267 sec). The class given is functional.

Calls of active or inactive are those of the source.

In the case of `Nc1ccc([N+](=O)[O-])cc1N`, in data set [1], the Activity_index amounted to 62.3. Moreover, the Activity in data set [2] is reported as 519.
Consider `Cc1cc(C)c(C)c(OCCN[C@@H]2CCCC[C@H]2O)c1` (racemic), for which the Activity_index in [3] is 1.1; in [11], 0.9; in data set [13], 2.6; in data set [18], 0.8; in data set [20], 1.4; in data set [24], 1.1. Moreover, the Activity_index in data set [28] worked out at 1.1; in data set [31], 1.2; in data set [34], 0.7; in data set [37], 0.8. For the same compound, the Time in data set [4] came to 22.333 s; in data set [39] it was 9.278 s. Further, the Activity in data set [5] is 6.7; in data set [6], “Toxic”; in data set [7], “Toxic”; in [8], 8.7; in [9], “Toxic”; in data set [10] it was 185.5. For the same compound, the Activity is given as 147 in data set [12]; 49 in data set [14]; 7.3 in data set [15]; “Toxic” in data set [19]; 2.122 g in data set [22]; “Non-Toxic” in data set [23]. Besides, the Activity in [27] is 105; in data set [30], 2.222 g; in data set [32], 138.3; in [33], 9.3; in data set [35], 6.3. For the same compound, the selectivity ratio in data set [16] turned out to be 5. For the same compound, in data set [17], the TD50 was 78.3 mg/kg. Further, the outcome in [21] was inactive. Moreover, the half-life in [25] amounted to 27.2 min. For the same compound, the microsomal CLint in data set [26] was 128 µL/min/mg. Further, the Drug metabolism result in data set [29] is “Metabolite_Detected”. In data set [36], this compound yielded a Ki of 1.01 µM. The ED50 in data set [38] was found to be 15.7 mg/kg.
